According to patent US20250043349A1, “DEORPHANIZING ODORS USING SINGLE CELL SEQUENCING” (PRESIDENT AND FELLOWS OF HARVARD COLLEGE, priority 2021, published 2025):

What was measured:
[1] = system: OSN subtypes (odorant receptors, ORs); assay: Act-Seq: scSeq of olfactory epithelium after two-hour odor exposure (IEG expression, activated ORs, activation score); assay type: in vivo, mouse
Protocol: Act-Seq (Wu et al., 2017) was performed following odor exposure to quantify odor-evoked responses in each OSN subtype (defined by their expressed OR) across the entire OR repertoire. Mice were habituated to a reversed light cycle for at least for 1 week before odor exposure, transferred to a new disposable cage with regular bedding/food and kept overnight in a satellite animal facility. On the experimental day, each mouse was first transferred to a new empty disposable cage during the dark cycle and habituated for 20 minutes. Empty cages were used to avoid any activation by odorants present within the environments in which the mice were housed. Odors were added to a piece of filter paper (100 μL of odorant) in a 35 mm petri dish and a cotton ball (200 μL of odorant) and placed in each cage. After 2 hours, mice were euthanized, and dissociation was performed as described below. Odors used in this study were as follows. Dipropylene glycol (DPG, control solvent), and 10% of acetophenone, octanal, 2-hydroxy acetophenone, 4-methyl acetophenone, and methyl salicylate. As a control, mice were exposed to DPG alone for 30 min. This control condition was used to account for any drift in transcriptomes during the overnight housing and habituation periods prior to odor exposure and designed to capture the transcriptome in the state it would have been in the odor-exposed animals prior to odor exposure. […] Act-Seq was also performed using lower concentrations of acetophenone (1.0, 0.1, 0.01%) and 2-hydroxy acetophenone (0.1%, 0.01%). All odor dilutions were made with DPG, and all odors and DPG were obtained from Sigma. To assess the persistence of any transcriptional changes observed as a result of odor exposure, a cohort of mice was exposed to acetophenone or DPG for 2 hours, transferred to new clean regular home cages, and subjected to scSeq after an additional 22 hours.
The main olfactory epithelium was dissected in Earle's Balanced Salt Solution (EBSS, pre-treated with carbogen for at least 5 minutes before each use, Worthington), then transferred to a round-bottomed glass dish containing 750 μL of papain solution (one vial of Papain (Worthington) dissolved in 5 mL of EBSS and then equilibrated 10 minutes at 37° C.) and 100 μL of DNase solution (one vial of DNase-I (Worthington) dissolved in 500 μL of EBSS). Bone was removed from the epithelium under a dissecting microscope and the resulting epithelial tissue was placed in a 5 mL tube (Becton Dickinson) with an additional 1.75 mL of Papain solution and 200 μL of DNase-I solution and rocked gently for-60 minutes at 37° C. The tissue was then gently triturated with a 5 mL pipette 10-15 times, passed through a 40 μm cell strainer (Becton Dickinson), and washed with 1 mL of Hibernate-A medium containing 10% Fetal Bovine Serum (FBS. GIBCO). Filtered cells were transferred to a new 5 mL tube and centrifuged 5 minutes at 300×g. The supernatant was decanted, the cells were washed once with 4 mL Hibernate-A containing 10% FBS and resuspended in 1 mL Hibernate-A containing 0.2% FBS. Importantly, each of the solutions above contained transcriptional inhibitors (5 μg/mL of Actinomycin D, 10 μg/mL of Anisomycin and 10 μM of Triptolide, all obtained from Sigma) for all experiments, especially the Act-Seq experiments, except where noted.
OSN subtypes that were responsive to odorants were identified via a two-step process. First, individual OSNs (as defined by the expressed OR) were determined as activated based on their mean z-scored immediate early genes (IEG) expression. A set of 10 IEGs were used (Btg2, Egr1, Fos, Fosb, Gm13889, Junb, Nr4a1, Nr4a2, Pcdh10, and Srxn1). […] The set of 10 IEGs was used since even though all of the IEGs were specific to acute activation by odors, they were still only detected in a minority of cells due to the sparse nature of scSeq. […]

[2] = system: OSN subtypes; assay: Persistence of transcriptional changes: 2 h odor exposure, 22 h home cage, scSeq ES scores; assay type: in vivo, mouse; details: two-hour exposure, measured after 24 hours
Protocol: Act-Seq (Wu et al., 2017) was performed following odor exposure to quantify odor-evoked responses in each OSN subtype (defined by their expressed OR) across the entire OR repertoire. Mice were habituated to a reversed light cycle for at least for 1 week before odor exposure, transferred to a new disposable cage with regular bedding/food and kept overnight in a satellite animal facility. On the experimental day, each mouse was first transferred to a new empty disposable cage during the dark cycle and habituated for 20 minutes. Empty cages were used to avoid any activation by odorants present within the environments in which the mice were housed. Odors were added to a piece of filter paper (100 μL of odorant) in a 35 mm petri dish and a cotton ball (200 μL of odorant) and placed in each cage. After 2 hours, mice were euthanized, and dissociation was performed as described below. Odors used in this study were as follows. […]
Changes in ES scores were evaluated by comparing the ES scores for each OSN subtype across experimental conditions. […] The changes in ES scores and z-scored functional gene expression across conditions for each OSN subtype are described. The relative ES score change for each OSN subtype was calculated by subtracting the mean across all OSN subtypes, to normalize for any global changes across conditions that were present across the population of OSNs.

[3] = acetophenone concentration series 0.01-10%

activation scores of acetophenone-responsive OSNs with increasing concentrations [1, 3]: tonically increased | number of ORs activated with increasing concentrations [1, 3]: tonically increased | z-scored expression of 10 immediate early genes (IEGs) for each OSN subtype, odor vs control ([1]; odor vs control (DPG) conditions): higher in the odor conditions
SMILES: CC(=O)c1ccccc1 [acetophenone]
percent of cells activated per OR on average, 5 partially activated ORs identified only by phospho-S6 ([1]; Act-Seq, ORs identified as acetophenone receptors): 43.8% | overlap between ORs activated by ACE and OCT, odds ratio ([1]; Fisher's exact test, overlap at chance levels): 1.42 | ES scores after transient exposure [2]: did not change ES scores after 24 hours
